Literature values, collected in patent US9604977B2, “Bicyclic thiophenylamide compounds” (Hoffmann-La Roche Inc., priority 2012, dated 2017).

Key:
[1] = tested on: ob/ob mice
[2] = tested on: ApoE KO mice
[3] = tested on: mice under HF diet

SMILES	glucose uptake in muscle and adipose ([1]; clamp study in ob/ob mice)	hepatic glucose production ([1]; clamp study in ob/ob mice)	body weight and energy consumption ([1]; ob/ob mice)	hepatic steatosis ([1]; ob/ob mice)	atherosclerotic plaques formation [2]	insulin and glucose tolerance [3]	plasma triglyceride and free fatty acid [3]
CCc1c(-c2ccccc2)c(-c2ccccc2)nn1-c1ccccc1-c1cccc(OCC(=O)O)c1 [BMS309403]	increased glucose uptake in muscle and adipose	reduction of hepatic glucose production	no change in body weight and energy consumption	reduction in hepatic steatosis	decrease in atherosclerotic plaques formation	–	–
Cc1noc(-c2c(NC(=O)C3=C(C(=O)O)CCCC3)sc3c2CCCC3)n1 [Compound 3]	–	–	–	–	–	no improvement in insulin and glucose tolerance	reduction in plasma triglyceride and free fatty acid
